Measurements from patent US20260159512A1, “BCAT2 INHIBITORS” (AGIOS PHARMACEUTICALS, INC., priority 2021, published 2026).

Legend:
BCAT2 [1] = target: T1, BCAT2 (Homo sapiens, UniProt O15382); assay: BCAT2 in vitro enzyme inhibition assay (resazurin/diaphorase-coupled fluorescence); type: biochemical; conditions: average where tested multiple times
T1 sequence (O15382 28-392): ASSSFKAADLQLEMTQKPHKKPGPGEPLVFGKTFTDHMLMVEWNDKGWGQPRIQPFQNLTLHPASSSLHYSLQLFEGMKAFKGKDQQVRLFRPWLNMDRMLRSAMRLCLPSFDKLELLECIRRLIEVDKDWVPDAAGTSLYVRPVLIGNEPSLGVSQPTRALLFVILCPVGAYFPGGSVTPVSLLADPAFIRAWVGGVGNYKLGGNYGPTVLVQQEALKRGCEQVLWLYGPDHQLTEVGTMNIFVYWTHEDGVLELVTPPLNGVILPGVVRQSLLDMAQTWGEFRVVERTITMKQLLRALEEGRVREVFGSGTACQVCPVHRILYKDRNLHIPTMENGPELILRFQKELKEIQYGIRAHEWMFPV
Protocol: BCAT2 In Vitro Enzyme Inhibition Assay
1.67× hBCAT2 Enzyme Mix: 0.33 μg/mL hBCAT2, 1× Buffer
2.5× Substrate Mix: 460 μM L-leucine, 420 μM α-KetoGlutarate, 10 U/mL glutamate dehydrogenase, 10 mM NAD, 30 μg/mL diaphorase, 20 μm Resazurin
BCAT2 enzyme stock solution was diluted to prepare a 1.67× hBCAT2 Enzyme Mix. 1 μL of test compound was first added to the reaction wells followed by 30 μL of 1.67× hBCAT2 Enzyme Mix and incubated at room temperature (25° C.) for one hour. Meanwhile the Substrate Mix was prepared. The reaction was initiated by the addition of 20 μL of the 2.5× Substrate Mix, bringing the final reaction mix of all components to 1×. Reactions were quenched after one hour by the addition of 25 μL of 6% SDS and reaction progress was measured via fluorescence read (Ex 540/Em 590).
Test Compound Preparation:
Test compounds were prepared at 50× final concentration in DMSO, 1 to 3 dilutions were made for 10 points. The compounds were added to the assay as a 1 to 50 dilution (1 μL in 50 μL) to yield a top assay final concentration of 100 μM, decreasing 3-fold for 10 points. Each compound dilution series test also included an assay max (1 μL DMSO Added in lieu of compound, Full Reaction Components Included) and Min (1 μL DMSO Added in lieu of compound, 30 μl of 1.67× hBCAT2 Enzyme Mix replated by 30 μL of 1× Buffer). All tests were performed in technical duplicate.
Where a compound was tested multiple times, the average value of the tests is reported.

BCAT2 [2] = target: T1, BCAT2; assay: BCAT2 in vitro cell inhibition using engineered A549 cells (KMV cell assay, 13C6-KMV by LC-MS/MS); type: cell-based; set-up: The result was an engineered A549 cell line that expressed endogenous BCAT2; endogenous in cells; host or cells: A549 cells with MUT and BCAT1 knocked out by CRISPR/CAS9; key to BCAT2 Cell Inhibition: A: less than or equal to 0.100 μM; B: greater than 0.100 and less than or equal to 0.500 μM; C: greater than 0.500 and less than or equal to 1.000 μM; d: greater than 1.000 μM; E: no fit; conditions: average where tested multiple times

Row | SMILES | IC50 (BCAT2 [1]) | IC50 (BCAT2 [2]) | BCAT2 Cell Inhibition (BCAT2 [2])
1 | N#Cc1ccc(-c2nc3cnc(-c4nc[nH]n4)cc3n2[C@@H]2CCC[C@H](NC(=O)c3ccc(Cl)s3)C2)c(F)c1 [Example 353, 5-chloro-N-((1S,3R)-3-(2-(4-cyano-2-fluorophenyl)-6-(1H-1,2,4-triazol-3-yl)-1H-imidazo[4,5-c]pyridin-1-yl)cyclohexyl)thiophene-2-carboxamide] | > 1000 nM | > 1000 nM | 
2 | O=C(N[C@H]1CCC[C@@H](n2c(CN3CCCCC3)nc3cnc(-n4nccn4)cc32)C1)c1ncc(C(F)F)s1 [Example 95, 5-(difluoromethyl)-N-((1S,3R)-3-(2-(piperidin-1-ylmethyl)-6-(2H-1,2,3-triazol-2-yl)-1H-imidazo[4,5-c]pyridin-1-yl)cyclohexyl)thiazole-2-carboxamide] | > 1000 nM |  | E
3 | CC(C)Cc1nc2cnc(-c3ccccn3)cc2n1[C@H]1C[C@H](O)C[C@@H](NC(=O)c2ncc(Cl)s2)C1 (single isomer, unassigned) [Example 215] | 500 to 1000 nM |  | E
4 | CC(C)Cc1nc2cnc(-c3ccccc3CC#N)cc2n1[C@@H]1CCC[C@H](NC(=O)c2ncc(Cl)s2)C1 [Example 333, 5-chloro-N-((1S,3R)-3-(6-(2-(cyanomethyl)phenyl)-2-isobutyl-1H-imidazo[4,5-c]pyridin-1-yl)cyclohexyl)thiazole-2-carboxamide] | > 1000 nM |  | E
5 | CO[C@@H]1C[C@@H](NC(=O)c2ncc(Cl)s2)C[C@@H](n2c(-c3ccccc3F)nc3cnc(N4CCC[C@H]4CO)cc32)C1 [Example 430, 5-chloro-N-((1S,3R,5R)-3-(2-(2-fluorophenyl)-6-((S)-2-(hydroxymethyl)pyrrolidin-1-yl)-1H-imidazo[4,5-c]pyridin-1-yl)-5-methoxycyclohexyl)thiazole-2-carboxamide] | > 1000 nM | > 1000 nM | 
6 | CC(C)Cc1nc2cnc(-n3cc(F)cn3)cc2n1[C@H]1C[C@H](O)C[C@@H](NC(=O)c2ncc(Cl)s2)C1 [Example 222, 5-chloro-N-((1S,3R,5R)-3-(6-(4-fluoro-1H-pyrazol-1-yl)-2-isobutyl-1H-imidazo[4,5-c]pyridin-1-yl)-5-hydroxycyclohexyl)thiazole-2-carboxamide] | > 1000 nM |  | 
7 | CC(=O)Cc1nc2cnc(-c3ccccn3)cc2n1[C@@H]1CCC[C@H](NC(=O)c2ncc(Cl)s2)C1 [Example 362, 5-chloro-N-((1S,3R)-3-(2-(2-oxopropyl)-6-(pyridin-2-yl)-1H-imidazo[4,5-c]pyridin-1-yl)cyclohexyl)thiazole-2-carboxamide] | > 1000 nM |  | 
8 | CC(C)Cc1nc2cnc(-c3ccn(C)n3)cc2n1[C@H]1CCC[C@@H](NC(=O)c2ncc(Cl)s2)[C@@H]1O [Example 224, 5-chloro-N-((1R,2S,3S)-2-hydroxy-3-(2-isobutyl-6-(1-methyl-1H-pyrazol-3-yl)-1H-imidazo[4,5-c]pyridin-1-yl)cyclohexyl)thiazole-2-carboxamide] | > 1000 nM |  | 
9 | CC(C)Cc1nc2cnc(-c3ccn[nH]3)cc2n1[C@H]1CCC[C@@H](NC(=O)c2ncc(Cl)s2)[C@@H]1O [Example 226, 5-chloro-N-((1R,2S,3S)-2-hydroxy-3-(2-isobutyl-6-(1H-pyrazol-5-yl)-1H-imidazo[4,5-c]pyridin-1-yl)cyclohexyl)thiazole-2-carboxamide] | > 1000 nM |  | 
10 | CC(C)Cc1nc2cnc(-n3nccn3)cc2n1[C@H]1CCC[C@@H](NC(=O)c2ncc(Cl)s2)[C@@H]1O [Example 228, 5-chloro-N-((1R,2S,3S)-2-hydroxy-3-(2-isobutyl-6-(2H-1,2,3-triazol-2-yl)-1H-imidazo[4,5-c]pyridin-1-yl)cyclohexyl)thiazole-2-carboxamide] | > 1000 nM |  | 
11 | CS(=O)(=O)O[C@@H]1[C@@H](NC(=O)c2ncc(Cl)s2)CCC[C@H]1n1c(-c2ccccc2F)nc2cnc(-c3nc[nH]n3)cc21 [Example 448, (1R,2S,6R)-2-(5-chlorothiazole-2-carboxamido)-6-(2-(2-fluorophenyl)-6-(1H-1,2,4-triazol-3-yl)-1H-imidazo[4,5-c]pyridin-1-yl)cyclohexyl methanesulfonate] | 500 to 1000 nM |  | 
12 | O=C(N[C@H]1CCC[C@@H](n2c(C3CNCCO3)nc3cnc(-c4nc[nH]n4)cc32)C1)c1ncc(Cl)s1 (stereo partly drawn) [Example 174, 5-chloro-N-((1S,3R)-3-(2-(morpholin-2-yl)-6-(1H-1,2,4-triazol-3-yl)-1H-imidazo[4,5-c]pyridin-1-yl)cyclohexyl)thiazole-2-carboxamide] | > 1000 nM |  | 

More lines, now with the values ahead:

Row | IC50 (BCAT2 [1]) | IC50 (BCAT2 [2]) | BCAT2 Cell Inhibition (BCAT2 [2]) | SMILES
13 | 100 to 500 nM |  | E | O=C(N[C@H]1CCC[C@@H](n2c(-c3ccccc3F)nc3cnc(O[C@@H]4CCOC4)cc32)C1)c1ncc(Cl)s1 [Example 266, 5-chloro-N-((1S,3R)-3-(2-(2-fluorophenyl)-6-(((R)-tetrahydrofuran-3-yl)oxy)-1H-imidazo[4,5-c]pyridin-1-yl)cyclohexyl)thiazole-2-carboxamide]
14 | 100 to 500 nM |  | E | CC(C)Cc1nc2cnc(-n3cc(C(C)O)nn3)cc2n1[C@@H]1CCC[C@H](NC(=O)c2ncc(Cl)s2)C1 (stereo partly drawn) [Example 359, 5-chloro-N-((1S,3R)-3-(6-(4-(1-hydroxyethyl)-1H-1,2,3-triazol-1-yl)-2-isobutyl-1H-imidazo[4,5-c]pyridin-1-yl)cyclohexyl)thiazole-2-carboxamide]
15 | 100 to 500 nM | > 1000 nM |  | CO[C@H]1C[C@H](NC(=O)c2ccc(Cl)s2)C[C@H](n2c(-c3ccccc3F)nc3cnc(-c4nc[nH]n4)cc32)C1 (stereo in doubt) [Example 411, 5-chloro-N-((1R,3S,5S)-3-(2-(2-fluorophenyl)-6-(1H-1,2,4-triazol-3-yl)-1H-imidazo[4,5-c]pyridin-1-yl)-5-methoxycyclohexyl)thiophene-2-carboxamide]
16 | 100 to 500 nM | 500 to 1000 nM |  | O=C(N[C@@H]1CCCC[C@H](n2c(-c3ccccc3F)nc3cnc(-c4nc[nH]n4)cc32)[C@H]1O)c1ccc(Cl)s1 [Example 404, 5-chloro-N-((1R,2S,3S)-3-(2-(2-fluorophenyl)-6-(1H-1,2,4-triazol-3-yl)-1H-imidazo[4,5-c]pyridin-1-yl)-2-hydroxycycloheptyl)thiophene-2-carboxamide]
17 | 100 to 500 nM |  |  | CO[C@H]1C[C@H](NC(=O)c2ncc(Cl)s2)C[C@H](n2c(-c3ccccc3C#N)nc3cnc(-c4nc[nH]n4)cc32)C1 (stereo in doubt) [Example 445, 5-chloro-N-((1R,3S,5S)-3-(2-(2-cyanophenyl)-6-(1H-1,2,4-triazol-3-yl)-1H-imidazo[4,5-c]pyridin-1-yl)-5-methoxycyclohexyl)thiazole-2-carboxamide]
18 | 100 to 500 nM |  |  | CO[C@@H]1C[C@@H](NC(=O)c2ccc(Cl)s2)C[C@@H](n2c(CC(C)C)nc3cnc(-c4ncccn4)cc32)C1 (single isomer, unassigned) [Example 438]
19 | 100 to 500 nM |  |  | COC(=O)O[C@@H]1[C@@H](NC(=O)c2ncc(Cl)s2)CCC[C@H]1n1c(-c2ccccc2F)nc2cnc(-c3nc[nH]n3)cc21 [Example 447, (1R,2S,6R)-2-(5-chlorothiazole-2-carboxamido)-6-(2-(2-fluorophenyl)-6-(1H-1,2,4-triazol-3-yl)-1H-imidazo[4,5-c]pyridin-1-yl)cyclohexyl methyl carbonate]
20 | ≤ 100 nM |  |  | [N-]=[N+]=N[C@@H]1[C@@H](NC(=O)c2ncc(Cl)s2)CCC[C@H]1n1c(-c2ccccc2F)nc2cnc(-c3nc[nH]n3)cc21 [Example 449, N-((1S,2R,3R)-2-azido-3-(2-(2-fluorophenyl)-6-(1H-1,2,4-triazol-3-yl)-1H-imidazo[4,5-c]pyridin-1-yl)cyclohexyl)-5-chlorothiazole-2-carboxamide]
21 | ≤ 100 nM |  |  | O=C(N[C@H]1CCC[C@@H](n2c(-c3ccccc3OCCO)nc3cnc(-c4nc[nH]n4)cc32)C1)c1ncc(Cl)s1 [Example 382, 5-chloro-N-((1S,3R)-3-(2-(2-(2-hydroxyethoxy)phenyl)-6-(1H-1,2,4-triazol-3-yl)-1H-imidazo[4,5-c]pyridin-1-yl)cyclohexyl)thiazole-2-carboxamide]
